Laboratory results from US11129830B2, “PAC-1 combination therapy” (The Board of Trustees of the University of Illinois, priority 2015, dated 2021).
Like-named read-outs stand apart in the source and are kept apart here.

Assays:
A375VR cells [1] = test: Annexin V/PI apoptosis in A375VR; format: cell-based, human; conditions: 24 h; in combination with low concentrations of vemurafenib
Description: FIGS. 13A-C. Effect of the PAC-1 and vemurafenib combination in A375VR cells. (A) Shown is percent apoptotic cell death (assessed by Annexin V/PI staining and flow cytometry) induced after 24 h of treatment. (B) The apoptotic cell death observed in (A) is greater than that predicted by the Bliss independent model. The excess cell death is calculated as [f(observed, apoptotic)−(f(PAC-1, apoptotic)+f(vemurafenib, apoptotic)−f(PAC-1, apoptotic)*f(vemurafenib, apoptotic))]*100%. […] (C) The synergistic effect of PAC-1 and vemurafenib in activating apoptosis in A375VR after 24 h.

A375VR cells [2] = test: Cellular proliferation (SRB) assay in vemurafenib-resistant A375VR; format: cell-based, human; conditions: for IC50: 120 h, 5-day
Description: To assess if PAC-1 remains active in a cell line that has acquired resistance to vemurafenib, a vemurafenib-resistant A375VR cell line was generated by growing A375 parental cell line in sequentially higher concentrations of vemurafenib (0.5 μM to 1.0 μM) for 2 months. To determine the mechanism of resistance of A375VR, genes for MEK1/2, NRAS and AKT were sequenced, but no commonly reported mutations that would confer resistance were found (Rizos et al., Clinical Cancer Research 2014; 20:1965-77). Similarly, splice variant of the ^V600EBRAF mRNA was also not observed. Through qPCR, A375VR cells have approximately 3-fold higher levels of MDR1 mRNA compared to A375.
(§1) 1000-2000 cells were seeded per well in a 96-well plate and allowed to adhere before DMSO solutions of PAC-1 or vemurafenib were added to each well. Proliferation was assessed by the sulforhodamine B (SRB) assay.

[3] = system: caspase-3/-7 activity in A375 cells; conditions: PAC-1 12 μM, vemurafenib 10 μM; combination increase as early as 7 h post-treatment
Description: (§2) 5,000-8,000 cells were plated in 96 well plates and allowed to adhere. […] Plates were then assessed for caspase-3/7 activity via addition of bifunctional lysis and activity buffer (200 mM HEPES, 400 mM NaCl, 40 mM DTT, 0.4 mM EDTA, 1% Triton-X, pH 7.4) with 20 μM of Ac-DEVD-AFC (SEQ ID NO: 20) (Cayman Chemicals) as the fluorogenic substrate (λex=400 nm, λem=505 nm). Plates were pre-incubated at 37° C. at 30 min in the Synergy multi-mode reader (BioTek) then read for 30 min at 3 min intervals. The slopes for each well were calculated. Activity is expresses as normalized to minimal and maximal activity observed within the assay.

[4] = system: panel of nine cell lines of diverse origins and BRAF mutational status; test: Cellular proliferation (SRB) assay, 5-day IC50, panel of nine cell lines; format: cell-based; conditions: 120 h, read-out: IC50 values (5 day)
Description: as §1

A375 xenograft tumors = test: A375 subcutaneous mouse xenograft model of melanoma
Description: In this model, nude mice were inoculated subcutaneously with A375 cells, and after allowing the tumors to grow, mice were randomized based upon tumor volume into four groups [F=0.03<Fcritical(3.01)] and dosed with PAC-1, vemurafenib, or the combination for 15 days.
0.1 mL of A375 or A375VR in 1:1 DMEM:matrigel (Corning) was injected into the right flank of 6-7 (A375) or 5 (A375VR) week old female athymic nude mice (Charles River). In the both models, the mice were randomized into four groups: control, 100 mg/kg PAC-1, 10 mg/kg vemurafenib, and the combination of 100 mg/kg PAC-1 and 10 mg/kg vemurafenib (n=8). Initial tumor volume measurements were taken and dosing was initiated for a period of 15 days. Vemurafenib was formulated as 5% DMSO in 1% methyl cellulose and given twice daily by oral gavage (p.o.). PAC-1 was formulated in 200 mg/mL hydroxypropyl-β-cyclodextrin at pH 5.5 and given by intraperitoneal (i.p.) injection. Tumor length and width measurements were taken three times a week and volume was calculated as 0.52*L*W^2. At the end of the study, the mice were euthanized and tumors were excised. The tumors were weighed and used for Western blot and immunohistochemistry.

A375 cells = test: Cellular proliferation (SRB) assay in A375; format: cell-based, human; conditions: for Emax: A-375, 120 h
Description: as §1

[5] = system: caspase-3/-7 activity in UACC-62 cells; conditions: PAC-1 12 μM, vemurafenib 10 μM
Description: as §2

A375VR xenograft tumors = conditions: nude mice, 15 days; vemurafenib 10 mg/kg, PAC-1 100 mg/kg
Description: All animal studies were performed in accordance with UIUC IACUC guidelines (protocol no. 14292). 0.1 mL of A375 or A375VR in 1:1 DMEM:matrigel (Corning) was injected into the right flank of 6-7 (A375) or 5 (A375VR) week old female athymic nude mice (Charles River). In the both models, the mice were randomized into four groups: control, 100 mg/kg PAC-1, 10 mg/kg vemurafenib, and the combination of 100 mg/kg PAC-1 and 10 mg/kg vemurafenib (n=8). Initial tumor volume measurements were taken and dosing was initiated for a period of 15 days. Vemurafenib was formulated as 5% DMSO in 1% methyl cellulose and given twice daily by oral gavage (p.o.). PAC-1 was formulated in 200 mg/mL hydroxypropyl-β-cyclodextrin at pH 5.5 and given by intraperitoneal (i.p.) injection. Tumor length and width measurements were taken three times a week and volume was calculated as 0.52*L*W^2. At the end of the study, the mice were euthanized and tumors were excised. The tumors were weighed and used for Western blot and immunohistochemistry.

[6] = system: caspase-3/-7 activity in SK-MEL-5 cells; conditions: PAC-1 12 μM, vemurafenib 10 μM
Description: as §2

[7] = system: PARP-1 cleavage in UACC-62 cells; test: PARP-1 cleavage Western blot in UACC-62; format: cell-based, human; conditions: PAC-1 12 μM, vemurafenib 10 μM
Description: (§3) Cells and tumor tissues were lysed using RIPA buffer containing phosphatase and protease inhibitor cocktail (Calbiochem). The protein concentration of each sample was determined by the BCA assay (Pierce). Cell lysates containing 20 μg of protein was loaded into each lane of 4-20% gradient gels (BioRad) for SDS-PAGE. Proteins were transferred onto PDVF membrane for Western blot analysis.

[8] = system: PARP-1 cleavage in A375 cells; test: PARP-1 cleavage Western blot in A375; format: cell-based, human; conditions: PAC-1 or PAC-1a 12 μM, vemurafenib 10 μM; up to 24 h
Description: as §3

A375 and SK-MEL-5 cells = test: Long-term (up to 30 days) continuous treatment, cell regrowth; format: cell-based, human; conditions: PAC-1 4 μM or vemurafenib 10 μM
Description: We therefore hypothesized that long term treatment with vemurafenib would lead to re-growth of cancer cells, while treatment with PAC-1 should prevent re-growth. To investigate this hypothesis, A375 and SK-MEL-5 cells were plated at low densities and treated continuously with PAC-1 (4 μM) or vemurafenib (10 μM) for up to 30 days. […] However, in wells treated with PAC-1, no regrowth was observed even after 30 days (FIG. 5B). Thus, consistent with the higher Emax value, PAC-1 is able to quantitatively kill cells thereby preventing regrowth.

[9] = system: caspase-3/-7 activity in A375 and UACC-62 cells; conditions: 24 h; PAC-1 12 μM, vemurafenib 10 μM, trametinib 100 nM
Description: (A) Shown is percent apoptotic cell death after 24 h of treatment. […] Activity is expressed as normalized to the positive control. Dashed horizontal lines represent the level of cell death expected from a mere additive effect of the two agents. Values are reported as mean±SEM of at least three experiments.
5,000-8,000 cells were plated in 96 well plates and allowed to adhere. Cells were treated with 1 μM of staurosporine for 24 h or with 13 μM of raptinal (Palchaudhuri et al., Cell Rep 2015; 13:2027-36) for 3 h as positive control, DMSO as negative control and indicated concentrations of PAC-1 and vemurafenib for 0, 2, 4, 7, 10, 12, 16, 20 or 24 h. Plates were then assessed for caspase-3/7 activity via addition of bifunctional lysis and activity buffer (200 mM HEPES, 400 mM NaCl, 40 mM DTT, 0.4 mM EDTA, 1% Triton-X, pH 7.4) with 20 μM of Ac-DEVD-AFC (SEQ ID NO: 20) (Cayman Chemicals) as the fluorogenic substrate (λex=400 nm, λem=505 nm). Plates were pre-incubated at 37° C. at 30 min in the Synergy multi-mode reader (BioTek) then read for 30 min at 3 min intervals. The slopes for each well were calculated. Activity is expresses as normalized to minimal and maximal activity observed within the assay.

[10] = system: PARP-1 cleavage in SK-MEL-5 cells; test: PARP-1 cleavage Western blot in SK-MEL-5; format: cell-based, human; conditions: PAC-1 12 μM, vemurafenib 10 μM
Description: as §3

A375 or UACC-62 cells = test: In vitro resistance assay (SRB, 5, 10 and 20 days); format: cell-based, human; conditions: for cell number compared to the control, after 5 days: vemurafenib 5 μM or 10 μM; for cell death on day 10: A375, alone or with 1 μM PAC-1
Description: The next day, vemurafenib (5 or 10 μM) or PAC-1 (1 μM) were treated in six technical replicates for 5, 10 and 20 days. Fresh media and compounds were added every 2-3 days for the duration of the study. At the end of 5, 10 or 20 days, the wells were fixed with 10% cold trichloroacetic acid for 1 h at 4° C. The wells were then washed, allowed to dry and stained with 0.5% SRB dye for 30 min at room temperature. The wells were then washed with 0.1% acetic acid and allowed to dry. At this point, images of the plates were taken with GelDoc XR (BioRad). Finally, 200 μL of 10 mM Tris base (pH >10.4) was added into well and the absorbance at 510 nm were read using SpectraMax Plus (Molecular Devices). The absorbance at 510 nm is plotted against the days post treatment as an indication of cell proliferation over the time course of the experiment.

[11] = system: ERK1/2 phosphorylation in UACC-62 cells; test: ERK1/2 phosphorylation Western blot in UACC-62; format: cell-based, human; conditions: 24 h; vemurafenib 0.5 μM and 1 μM
Description: as §3

[12] = system: ERK1/2 phosphorylation in SK-MEL-5 cells; test: ERK1/2 phosphorylation Western blot in SK-MEL-5; format: cell-based, human; conditions: 24 h; vemurafenib 0.5 μM and 1 μM
Description: as §3

[13] = system: ERK1/2 phosphorylation in WTBRAF cell lines; test: ERK1/2 phosphorylation Western blot in WTBRAF cell lines; format: cell-based; conditions: 24 h; even at high concentrations (30 μM)
Description: as §3

[14] = system: ERK1/2 phosphorylation in A375 cells; test: ERK1/2 phosphorylation Western blot in A375; format: cell-based, human
Description: as §3

[15] = system: ERK1/2 phosphorylation in A375VR cells; test: ERK1/2 phosphorylation Western blot in A375VR; format: cell-based, human; conditions: 2 h; vemurafenib 0.5 or 1 μM
Description: as §3

[16] = system: melanoma patients with the V600E BRAF protein; conditions: literature; cited from earlier work

Structure (SMILES) | IC50 (A375VR cells [2]; Homo sapiens, A375VR) | caspase-3 activity [3] | IC50 [4] | Emax (percent cell death induced by high concentrations of compound) (A375 cells; A375 cells, after 5 days) | caspase-3/-7 enzymatic activity [5] | antitumor effect (tumor volume compared to untreated control) (A375VR xenograft tumors) | caspase-3/-7 enzymatic activity [6] | PARP-1 cleavage [7] | PARP-1 cleavage [8] | time of continuous treatment to regrowth of cells (A375 and SK-MEL-5 cells) | caspase-3/-7 activity [9] | PARP-1 cleavage [10] | cell number compared to the control, after 5 days (A375 or UACC-62 cells; A375 and UACC-62, PAC-1 1 μM) | further results
O=C(CN1CCN(Cc2ccccc2)CC1)N/N=C/c1ccccc1 [PAC-1a] |  |  |  |  |  |  |  |  |  |  |  |  |  | proportion of cells undergoing apoptosis (A375VR cells [1]): abolished
C=CCc1cccc(/C=N/NC(=O)CN2CCN(Cc3ccccc3)CC2)c1O [PAC-1, 2-(4-benzylpiperazin-1-yl)-N-[(2-hydroxy-3-prop-2-enyl-phenyl)methylideneamino]acetamide] | 2400 nM | negligible increases | 1000 to 4000 nM | ~100% | little effect | does not exert any antitumor affect | little effect | little effect | little effect | > 30 days | little effect | little effect | significant reduction in cell number | reduction in tumor mass and volume compared to untreated control (A375 xenograft tumors; PAC-1 100 mg/kg once daily i.p., 15 days): minimal reduction; Emax (A375 cells; Homo sapiens, read-out: Emax (percent cell death induced by high concentrations of compound), A375 cells, after 5 days): 99.4 ± 0.7%; IC50 (A375 cells; Homo sapiens, A-375, read-out: IC50 value): 1200 nM; difference from the control on day 10 (A375 or UACC-62 cells; PAC-1 1 μM): no observable difference
CCCS(=O)(=O)Nc1ccc(F)c(C(=O)c2c[nH]c3ncc(-c4ccc(Cl)cc4)cc23)c1F [vemurafenib] | 1500 nM | negligible increases | 200 to 550 nM | ~97% | little effect | does not exert any antitumor affect | little effect | little effect | little effect | ≥ 20 days | little effect | little effect | significant reduction in cell number | loss of potency compared to parental A375 (A375VR cells [2]; 5-day IC50, A375VR vs A375): 12 fold; Emax lower than the parental A375 cell line (A375VR cells [2]; A375VR vs A375): 14%; Emax (A375VR cells [2]; Homo sapiens, A375VR): 79 ± 6.3%; reduction in tumor volume compared to control (A375 xenograft tumors; nude mice, dosed 15 days, PAC-1 100 mg/kg once daily i.p., vemurafenib 10 mg/kg twice daily p.o.): 53%; mice having comparable tumor mass as the control mice (A375 xenograft tumors; vemurafenib 10 mg/kg twice daily p.o., 15 days): 3 out of 8; phosphorylation of ERK1/2 [11]: inhibited the phosphorylation of ERK1/2; phosphorylation of ERK1/2 [12]: inhibited the phosphorylation of ERK1/2; Emax (A375 cells; Homo sapiens, A375 cells, after 5 days, read-out: Emax (percent cell death induced by high concentrations of compound)): 96.8 ± 0.3%; A375 cells insensitive to compound (A375 cells; after 5 days, from Emax): ~3%; inhibition of ERK1/2 phosphorylation [13]: not observed; inhibition of ERK1/2 phosphorylation ([14]; 2 h, vemurafenib 0.5 or 1 μM, parental A375): complete inhibition; phospho-ERK1/2 bands ([14]; 24 h, vemurafenib 0.5 and 1.0 μM): not observed; complete inhibition of ERK1/2 phosphorylation [15]: not observed; cell death on day 10 (A375 or UACC-62 cells; vemurafenib 5 μM): 89.4±1.4%; cell death on day 10 (A375 or UACC-62 cells; vemurafenib 10 μM): 93.2±1.1%; regrowth of colonies after 20 days of treatment (A375 or UACC-62 cells; A375 and UACC-62, vemurafenib 5 or 10 μM, PAC-1 1 μM): significant regrowth of colonies; extension of progression-free survival [16]: 5.3 months
